# Experimental data from patent US7531194B2, “Plant extracts for the treatment of rheumatoid arthritis” (Development Center for Biotechnology, priority 2006, dated 2009).
# Key:
# Type in all cases: in vivo, Lewis rats
# CIA rats [1] = assay: Maximum arthritic index (MAI) of CIA rats fed PA extracts (Embodiment 4)
# Protocol: After immunization, the rats were observed three times a week. The changes of redness and swelling or the like in limbs were recorded, and photographs were taken and filed for comparison. The scoring of the examinations was based on 5 grades as follows:
# Maximum arthritic index, average MAI for each group was calculated as follows: Average MAI=Total of MAI recorded in limbs of each rat (0: no CIA occurs, 16: highest score)/4/total rat number of each group
# (§1) In the present animal test, the test animals and apparatus used are the same as those disclosed in embodiment 2.
# (§2) The animal test scheme is shown as FIG. 11. Bovine collagen type II was dissolved in 0.1 M acetic acid solution, stirred to dissolve thoroughly, and formulated into solutions of concentrations of 1.5 and 3 mg/ml, which were stored at 4° C. for later use. For the first immune injection, 100 μl of C II solution was emulsified with an equal amount of CFA, and injected subcutaneously (200 μl/rat) in the root portions of tails of the rats after the emulsification was complete. […] After about 15 days, the second immunization was done. 100 μl of C II solution was emulsified with an equal amount of IFA, and injected subcutaneously (200 μl/rat) in the root portions of tails of the rats after the emulsification was complete. Approximately from Day 18, the symptoms of arthritis were observed (CIA rats), and PA and CBX were fed from Day 19 until Day 38.
# CIA rats [2] = assay: Joint swelling degree (toe thickness) of CIA rats fed PA extracts (Embodiment 4)
# Protocol: The thickness changes of soles of rats were measured by a Vernier Caliper (twice per week), and there were eight measurement sites in total in each rat, including one site at the center of each sole of the two front feet respectively, and three sites in each of the two back feet (ankle joint, sole, and root portion of toe) respectively.
# as §1, §2
# Rheumatoid factor (RF) = assay: Serum RF of CIA rats fed PA extracts (Embodiment 4)
# Protocol: 1. Collagen was formulated in a coating buffer to a concentration of 40 μg/ml, 0.1 ml of which was added into a 96-well micro plate respectively, and was kept in 4° C. overnight.
# 2. After washing with Tris buffer three times, 0.2 ml of blocking buffer containing 1% BSA was added into each well. The reaction lasted for 2 hours at room temperature, and then was washed by Tris buffer three times again.
# 3. After the serum sample was diluted appropriately with Tris buffer containing 0.05% Tween 20 ( 1/20 or 1/40), 0.1 ml serum sample was added into each well of the 96-well micro plate. The reaction lasted for 2 hours at room temperature, and then was washed by Tris buffer three times again.
# 4. Coated anti-rat immunoglobulin M (IgM) was combined with horseradish […] (HRP), appropriately diluted ( 1/12000), and then added into the 96-well micro plate. The reaction lasted 2 hours at room temperature, and then was washed by Tris buffer three times again.
# 5. 0.1 ml of tetramethyl benzidine (TMB) was directly added into each well for color reaction, and then a stopping solution was added to stop the reaction. Finally, absorption (O.D) value was read out at the wavelength of 450 nm.
# as §1, §2
# IL-6 = assay: PEC cytokine IL-6, CIA rats fed PA extracts (Embodiment 4); details: PEC of CIA rats, gavage Day 19-38; doses as in the 4th table
# Protocol: (§3) 1. After carbon dioxide euthanasia, the outer furs of the rat abdominal cavity were cut out by scissors, to expose the whole abdominal cavity.
# (§4) 2. HBSS buffer was injected into the abdominal cavity batch-wise by a 10 ml syringe to make a total volume of about 20 ml/rat.
# (§5) 3. The abdominal cavity of the rat was opened after the abdomen was gently kneaded. An incision of about 2 cm was made in the abdominal cavity by using scissors. Peritoneal exudation cell (PEC) liquid (about 10 to 15 ml of cellular fluid could be collected) was drawn with a syringe, and placed into a 50 ml centrifuge tube.
# (§6) 4. The supernatant was removed after the liquid was centrifuged at 1500 rpm for 5 minutes. 10 ml of HBSS buffer was added to wash, and then centrifuged, after which the supernatant was removed.
# (§7) 5. The cell concentration was adjusted to 2×10^6 cells/ml with a fresh culture medium (containing antibiotics).
# (§8) 6. The cell suspension was divided into a 48-well plate at 0.5 ml/well.
# (§9) 7. An additional. 0.5 ml of lipopolysaccharides (LPS) (20 μg/ml) was added separately, making a final concentration of 10 μg/ml.
# (§10) 8. Finally, it was placed into a 37° C. incubator for 24 hours. The supernatant was collected, and stored in −20° C. The concentrations of cytokine TNF-α, IL-6, and IL-1β were analyzed by using ELISA kit.
# In the present animal test, the test animals and apparatus used are the same as those disclosed in embodiment 2. […]
# IL-1β = assay: PEC cytokine IL-1β, CIA rats fed PA extracts (Embodiment 4)
# Protocol: as §3, §4, §5, §6, §7, §8, §9, §10, §1
# The animal test scheme is shown as FIG. 11. Bovine collagen type II was dissolved in 0.1 M acetic acid solution, stirred to dissolve thoroughly, and formulated into solutions of concentrations of 1.5 and 3 mg/ml, which were stored at 4° C. for later use. For the first immune injection, 100 μl of C II solution was emulsified with an equal amount of CFA, and injected subcutaneously (200 μl/rat) in the root portions of tails of the rats after the emulsification was complete. […] After about 15 days, the second immunization was done. […]
# [3] = gavage Day 19-38, doses as in the 4th table
# [4] = PEC of CIA rats, gavage Day 19-38, doses as in the 4th table
compound,measurement,setting,value
"Cc1ccc(-c2cc(C(F)(F)F)nn2-c2ccc(S(N)(=O)=O)cc2)cc1 [CBX, Ceelebrex]","MAI, inhibitory effect",CIA rats [1]; [3],(40%)
same,"MAI, inhibitory effect (grade)",CIA rats [1]; [3],++ (“++” represents 25 to 50% of inhibitory effect)
same,effect on the arthritic indices (MAI) of CIA rats,"CIA rats [1]; gavage Day 19 until Day 38, FIG. 13",most preferred
same,"Toe thickness, inhibitory effect (grade)","CIA rats [2]; gavage Day 19-38, CBX 18, PA-EtOH 40.5, PA-F1 3.0, PA-F2 1.13, PA-F3 11.3, PA-F4 11.3 mg/kg/day",++ (“++” represents 25 to 50% of inhibitory effect)
same,"Toe thickness, inhibitory effect",CIA rats [2]; [3],(49%)
same,reduction of serum RF value,"Rheumatoid factor (RF); Day 30 compared to Day 18, FIG. 15",about 52%
same,reduction of serum RF value,"Rheumatoid factor (RF); Day 37 compared to Day 18, FIG. 15",about 66%
same,"RF, inhibitory effect",Rheumatoid factor (RF); [3],(43%)
same,"RF, inhibitory effect (grade)",Rheumatoid factor (RF); [3],++ (“++” represents 25 to 50% of inhibitory effect)
same,"IL-6, inhibitory effect",IL-6,(36%)
same,"IL-6, inhibitory effect (grade)",IL-6,++ (“++” represents 25 to 50% of inhibitory effect)
same,"IL-1β, inhibitory effect",IL-1β; [4],(38%)
same,"IL-1β, inhibitory effect (grade)",IL-1β; [4],++ (“++” represents 25 to 50% of inhibitory effect)
same,inhibition of PEC secreting IL-1β,"IL-1β; PEC of fed CIA rats, FIG. 17",significantly inhibits
